Earlier results on 1 substance are cited in US6713950B2, “Low volatility slurry for emission mix powder” (General Electric Company, priority 2001, dated 2004).

In the data set the test system is rats.

On to polyethylene glycol 200 [PEG 200], for which the “oral LD50” value was 28000 mg/kg.
